Source: ChEMBL document CHEMBL4715742, “Design, synthesis and cytotoxic activities of novel 2,5-diketopiperazine derivatives” (Eur J Med Chem, 2016)

Tests used:
K562 [1] = experiment: Cytotoxicity against human K562 cells assessed as reduction in cell viability measured after 24 to 72 hrs by CCK8 assay; type: functional, cell-based; details: dose 0.37-3.3 µM, time 24-72 hrs
K562 [2] = experiment: Cytotoxicity against human K562 cells assessed as reduction in cell viability at 0.37 to 3.3 uM by CCK8 assay; type: functional, cell-based; details: dose 0.37-3.3 µM, time 24-72 hrs, TDE = time-dependent effect
U-937 [3] = experiment: Induction of apoptosis in human U-937 cells assessed as necrotic cells at 0.5 uM measured after 24 hrs by annexinV/FITC-propidium iodide staining based flow cytometry (reference value: 1.12 to 1.48 %); type: functional
HL-60 = experiment: Cytotoxicity against human HL-60 cells assessed as reduction in cell viability measured after 72 hrs by CCK8 assay; type: functional, cell-based; details: Homo sapiens, HL-60, 72 h; read-out: IC50
U-937 [4] = experiment: Induction of apoptosis in human U-937 cells assessed as necrotic cells at 2 uM measured after 24 hrs by annexinV/FITC-propidium iodide staining based flow cytometry (reference value: 1.12 to 1.48 %); type: functional
K562 [5] = experiment: Cytotoxicity against human K562 cells assessed as cell viability at 1.1 uM measured after 24 hrs by CCK8 assay relative to control; type: functional; details: read-out: Activity
U-937 [6] = experiment: Induction of apoptosis in human U-937 cells assessed as early apoptotic cells at 1 uM measured after 24 hrs by annexinV/FITC-propidium iodide staining based flow cytometry (reference value: 1.28 to 1.68 %); type: functional
U-937 [7] = experiment: Induction of apoptosis in human U-937 cells assessed as apoptotic ratio at 1 uM measured after 48 hrs by annexinV/FITC-propidium iodide staining based flow cytometry (reference value: 5.2 +/- 0.2 %); type: functional
U-937 [8] = experiment: Cytotoxicity against human U-937 cells assessed as cell viability at 1.1 uM measured after 72 hrs by CCK8 assay relative to control; type: functional; details: read-out: Activity
HT-29 = experiment: Cytotoxicity against human HT-29 cells assessed as reduction in cell viability measured after 72 hrs by CCK8 assay; type: functional, cell-based; details: Homo sapiens, HT-29, 72 h; read-out: IC50
K562 [9] = experiment: Cytotoxicity against human K562 cells assessed as cell viability at 3.3 uM measured after 48 hrs by CCK8 assay relative to control; type: functional; details: read-out: Activity
U-937 [10] = experiment: Induction of apoptosis in human U-937 cells assessed as early apoptotic cells at 0.5 uM measured after 48 hrs by annexinV/FITC-propidium iodide staining based flow cytometry (reference value: 1.78 to 1.88 %); type: functional
K562 [11] = experiment: Cytotoxicity against human K562 cells assessed as cell viability at 3.3 uM measured after 24 hrs by CCK8 assay relative to control; type: functional; details: read-out: Activity
U-937 [12] = experiment: Induction of apoptosis in human U-937 cells assessed as viable cells at 1 uM measured after 24 hrs by annexinV/FITC-propidium iodide staining based flow cytometry (reference value: 95 to 95.1 %); type: functional; details: read-out: Activity
K562 [13] = experiment: Cytotoxicity against human K562 cells assessed as reduction in cell viability measured after 72 hrs by CCK8 assay; type: functional, cell-based; details: Homo sapiens, K562, 72 h; read-out: IC50
U-937 [14] = experiment: Induction of apoptosis in human U-937 cells assessed as viable cells at 1 uM measured after 48 hrs by annexinV/FITC-propidium iodide staining based flow cytometry (reference value: 93.7 to 94.2 %); type: functional; details: read-out: Activity
K562 [15] = experiment: Cytotoxicity against human K562 cells assessed as cell viability at 3.3 uM measured after 72 hrs by CCK8 assay relative to control; type: functional; details: read-out: Activity
U-937 [16] = experiment: Induction of apoptosis in human U-937 cells assessed as viable cells at 2 uM measured after 24 hrs by annexinV/FITC-propidium iodide staining based flow cytometry (reference value: 95 to 95.1 %); type: functional; details: read-out: Activity
U-937 [17] = experiment: Cytotoxicity against human U-937 cells assessed as reduction in cell viability at 0.37 to 3.3 uM by CCK8 assay; type: functional, cell-based; details: dose 0.37-3.3 µM, TDE = time-dependent effect
A549 = experiment: Cytotoxicity against human A549 cells assessed as reduction in cell viability measured after 72 hrs by CCK8 assay; type: functional, cell-based; details: Homo sapiens, A549, 72 h; read-out: IC50
U-937 [18] = experiment: Induction of apoptosis in human U-937 cells assessed as viable cells at 0.5 uM measured after 48 hrs by annexinV/FITC-propidium iodide staining based flow cytometry (reference value: 93.7 to 94.2 %); type: functional; details: read-out: Activity
U-937 [19] = experiment: Induction of apoptosis in human U-937 cells assessed as apoptotic ratio at 0.5 uM measured after 48 hrs by annexinV/FITC-propidium iodide staining based flow cytometry (reference value: 5.2 +/- 0.2 %); type: functional
U-937 [20] = experiment: Induction of apoptosis in human U-937 cells assessed as late apoptotic cells at 0.5 uM measured after 48 hrs by annexinV/FITC-propidium iodide staining based flow cytometry (reference value: 3.27 to 3.41 %); type: functional
U-937 [21] = experiment: Induction of apoptosis in human U-937 cells assessed as viable cells at 2 uM measured after 48 hrs by annexinV/FITC-propidium iodide staining based flow cytometry (reference value: 93.7 to 94.2 %); type: functional; details: read-out: Activity
U-937 [22] = experiment: Cytotoxicity against human U-937 cells assessed as cell viability at 3.3 uM measured after 24 hrs by CCK8 assay relative to control; type: functional; details: read-out: Activity
U-937 [23] = experiment: Cytotoxicity against human U-937 cells assessed as cell viability at 1.1 uM measured after 48 hrs by CCK8 assay relative to control; type: functional; details: read-out: Activity
U-937 [24] = experiment: Cytotoxicity against human U-937 cells assessed as cell viability at 0.37 uM measured after 24 hrs by CCK8 assay relative to control; type: functional; details: read-out: Activity
U-937 [25] = experiment: Cytotoxicity against human U-937 cells assessed as cell viability at 3.3 uM measured after 48 hrs by CCK8 assay relative to control; type: functional; details: read-out: Activity
DU-145 = experiment: Cytotoxicity against human DU-145 cells assessed as reduction in cell viability measured after 72 hrs by CCK8 assay; type: functional, cell-based; details: Homo sapiens, DU-145, 72 h; read-out: IC50
U-937 [26] = experiment: Induction of apoptosis in human U-937 cells assessed as late apoptotic cells at 1 uM measured after 24 hrs by annexinV/FITC-propidium iodide staining based flow cytometry (reference value: 2.18 to 2.22 %); type: functional
U-937 [27] = experiment: Induction of apoptosis in human U-937 cells assessed as necrotic cells at 2 uM measured after 48 hrs by annexinV/FITC-propidium iodide staining based flow cytometry (reference value: 0.794 to 0.955 %); type: functional
U-937 [28] = experiment: Induction of apoptosis in human U-937 cells assessed as late apoptotic cells at 2 uM measured after 24 hrs by annexinV/FITC-propidium iodide staining based flow cytometry (reference value: 2.18 to 2.22 %); type: functional
K562 [29] = experiment: Cytotoxicity against human K562 cells assessed as cell viability at 0.37 uM measured after 48 hrs by CCK8 assay relative to control; type: functional; details: read-out: Activity
U-937 [30] = experiment: Induction of apoptosis in human U-937 cells assessed as necrotic cells at 1 uM measured after 48 hrs by annexinV/FITC-propidium iodide staining based flow cytometry (reference value: 0.794 to 0.955 %); type: functional
K562 [31] = experiment: Cytotoxicity against human K562 cells assessed as cell viability at 0.37 uM measured after 72 hrs by CCK8 assay relative to control; type: functional; details: read-out: Activity

Q: `C=CCn1c(=O)/c(=C/CCCC)[nH]c(=O)/c1=C/c1ccc(OC)cc1` was tested. Which Activity (K562 [1]) did it give?
A: The Activity was “Dose-dependent effect”.

Q: And the Activity (K562 [2])?
A: The Activity was “Tde”.

Q: What about the Activity (U-937 [3]) of the same molecule?
A: The Activity was 1.07%.

Q: What about the IC50 (HL-60) of the same molecule?
A: The IC50 was 0.9 µM.

Q: And the Activity (U-937 [4])?
A: The Activity was 1.22%.

Q: And the viability at 1.1 µM (K562 [5])?
A: The viability at 1.1 µM was 50%.

Q: What about the Activity (U-937 [6]) of the same molecule?
A: The Activity was 7.63%.

Q: And the Activity (U-937 [7])?
A: The Activity was 25.8%.

Q: What about the viability at 1.1 µM (U-937 [8]) of the same molecule?
A: Its viability at 1.1 µM is 3.3%.

Q: And the IC50 (HT-29)?
A: The IC50 was 1.2 µM.

Q: And the viability at 3.3 µM (K562 [9])?
A: Its viability at 3.3 µM is 8.6%.

Q: And the Activity (U-937 [10])?
A: Its Activity is 7.77%.

Q: And the viability at 3.3 µM (K562 [11])?
A: The viability at 3.3 µM was 31%.

Q: What about the viability at 1 µM (U-937 [12]) of the same molecule?
A: Its viability at 1 µM is 82.6%.

Q: And the IC50 (K562 [13])?
A: The IC50 was 0.6 µM.

Q: What about the viability at 1 µM (U-937 [14]) of the same molecule?
A: The viability at 1 µM was 73.1%.

Q: And the viability at 3.3 µM (K562 [15])?
A: The viability at 3.3 µM was 3.5%.

Q: What about the viability at 2 µM (U-937 [16]) of the same molecule?
A: Its viability at 2 µM is 77.9%.

Q: And the Activity (U-937 [17])?
A: Its Activity is “Tde”.

Q: And the IC50 (A549)?
A: The IC50 was 1.7 µM.

Q: What about the viability at 0.5 µM (U-937 [18]) of the same molecule?
A: Its viability at 0.5 µM is 81.4%.

Q: And the Activity (U-937 [19])?
A: Its Activity is 16.7%.

Q: What about the Activity (U-937 [20]) of the same molecule?
A: The Activity was 8.32%.

Q: What about the viability at 2 µM (U-937 [21]) of the same molecule?
A: Its viability at 2 µM is 52.7%.

Q: And the viability at 3.3 µM (U-937 [22])?
A: The viability at 3.3 µM was 1.6%.

Q: And the viability at 1.1 µM (U-937 [23])?
A: Its viability at 1.1 µM is 8.8%.

Q: And the viability at 0.37 µM (U-937 [24])?
A: Its viability at 0.37 µM is 70.5%.

Q: And the viability at 3.3 µM (U-937 [25])?
A: Its viability at 3.3 µM is 0%.

Q: And the IC50 (DU-145)?
A: Its IC50 is 1.7 µM.

Q: What about the Activity (U-937 [26]) of the same molecule?
A: Its Activity is 8.23%.

Q: What about the Activity (U-937 [27]) of the same molecule?
A: Its Activity is 1.26%.

Q: And the Activity (U-937 [28])?
A: The Activity was 10.3%.

Q: What about the viability at 0.37 µM (K562 [29]) of the same molecule?
A: Its viability at 0.37 µM is 90.9%.

Q: And the Activity (U-937 [30])?
A: Its Activity is 1.04%.

Q: What about the viability at 0.37 µM (K562 [31]) of the same molecule?
A: The viability at 0.37 µM was 86.2%.
